# Experimental data reported in PMC10744336, “Functional Identification of Olfactory Receptors of Cnaphalocrocis medinalis (Lepidoptera: Crambidae) for Plant Odor” (Insects, 2023).
# Experiments:
# Experiment in all cases: two-electrode voltage clamp, Xenopus oocytes
# Type in all cases: cell-based
# [1] = target: T1, CmedOR32/ORco (Cnaphalocrocis medinalis, UniProt A0A1B2G2M9); details: agonist; with CmedORco; -80 mV; pH 7.5; 15 s stimulus; concentration contradictory (text 0.1 μM, figure legend 10^-4 M)
# T1 construct: full ORF cloned in pT7Ts; cRNA co-injected with CmedORco in Xenopus oocytes; with Odorant receptor coreceptor
# T1 sequence (A0A1B2G2M9 1-389): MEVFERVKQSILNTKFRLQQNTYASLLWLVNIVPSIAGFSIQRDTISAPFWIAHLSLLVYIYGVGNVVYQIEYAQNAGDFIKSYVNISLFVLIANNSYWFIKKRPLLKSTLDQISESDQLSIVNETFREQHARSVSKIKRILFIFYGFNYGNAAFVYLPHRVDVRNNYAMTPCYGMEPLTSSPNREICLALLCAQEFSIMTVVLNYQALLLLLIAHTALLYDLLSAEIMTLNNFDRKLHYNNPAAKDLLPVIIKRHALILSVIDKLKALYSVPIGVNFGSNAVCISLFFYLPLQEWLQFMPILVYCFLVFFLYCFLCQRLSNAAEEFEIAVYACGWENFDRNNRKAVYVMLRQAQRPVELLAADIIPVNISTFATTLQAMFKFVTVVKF
# T1 sequence (H9XFD5 1-473 partner): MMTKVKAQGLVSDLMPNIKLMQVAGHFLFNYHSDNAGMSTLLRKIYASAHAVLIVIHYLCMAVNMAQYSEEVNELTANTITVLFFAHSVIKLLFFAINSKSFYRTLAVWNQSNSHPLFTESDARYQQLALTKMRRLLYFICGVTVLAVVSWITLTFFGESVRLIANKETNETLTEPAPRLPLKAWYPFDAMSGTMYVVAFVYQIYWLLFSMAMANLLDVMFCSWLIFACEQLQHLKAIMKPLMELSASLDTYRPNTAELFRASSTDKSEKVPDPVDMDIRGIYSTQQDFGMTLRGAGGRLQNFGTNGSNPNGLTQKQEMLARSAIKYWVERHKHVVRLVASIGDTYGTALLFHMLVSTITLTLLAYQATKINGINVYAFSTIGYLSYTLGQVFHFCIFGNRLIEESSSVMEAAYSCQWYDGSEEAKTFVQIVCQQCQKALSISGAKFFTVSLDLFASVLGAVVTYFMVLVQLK
# [2] = target: T2, CmedOR31/ORco (Cnaphalocrocis medinalis, UniProt A0A1B2G2M5); details: agonist; with CmedORco; -80 mV; pH 7.5; 15 s stimulus; concentration contradictory (text 0.1 μM, figure legend 10^-4 M)
# T2 construct: full ORF cloned in pT7Ts; cRNA co-injected with CmedORco in Xenopus oocytes; with Odorant receptor coreceptor
# T2 sequence (A0A1B2G2M5 1-408): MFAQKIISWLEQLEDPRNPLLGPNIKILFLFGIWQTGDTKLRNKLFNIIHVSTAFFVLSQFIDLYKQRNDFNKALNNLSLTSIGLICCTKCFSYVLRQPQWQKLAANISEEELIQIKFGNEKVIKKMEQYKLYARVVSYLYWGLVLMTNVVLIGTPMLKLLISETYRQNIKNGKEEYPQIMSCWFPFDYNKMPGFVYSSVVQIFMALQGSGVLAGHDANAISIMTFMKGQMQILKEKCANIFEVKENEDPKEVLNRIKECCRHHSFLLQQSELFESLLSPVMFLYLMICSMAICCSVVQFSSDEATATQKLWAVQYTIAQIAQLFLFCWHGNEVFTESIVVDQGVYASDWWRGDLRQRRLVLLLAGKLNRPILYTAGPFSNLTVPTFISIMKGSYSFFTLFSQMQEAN
# T2 sequence (H9XFD5 1-473 partner): T1 sequence (H9XFD5 1-473 partner)
# [3] = target: T3, CmedOR1/ORco (Cnaphalocrocis medinalis, UniProt A0A0U3A934); details: agonist, with CmedORco, -80 mV, pH 7.5, 15 s stimulus, concentration contradictory (text 0.1 μM, figure legend 10^-4 M)
# T3 construct: gene or1; full ORF cloned in pT7Ts; cRNA co-injected with CmedORco in Xenopus oocytes; with Odorant receptor coreceptor
# T3 sequence (A0A0U3A934 1-448): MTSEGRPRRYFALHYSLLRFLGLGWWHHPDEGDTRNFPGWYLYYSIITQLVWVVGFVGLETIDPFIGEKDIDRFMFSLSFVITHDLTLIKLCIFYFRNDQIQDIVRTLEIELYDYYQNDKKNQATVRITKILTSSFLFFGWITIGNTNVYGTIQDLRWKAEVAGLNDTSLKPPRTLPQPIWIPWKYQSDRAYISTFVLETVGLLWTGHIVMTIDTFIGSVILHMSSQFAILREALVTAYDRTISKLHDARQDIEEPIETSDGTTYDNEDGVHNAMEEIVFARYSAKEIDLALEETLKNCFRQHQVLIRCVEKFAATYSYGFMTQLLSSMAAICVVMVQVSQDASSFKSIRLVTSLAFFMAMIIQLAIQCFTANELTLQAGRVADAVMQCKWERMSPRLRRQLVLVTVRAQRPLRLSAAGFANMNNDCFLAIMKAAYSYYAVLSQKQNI
# T3 sequence (H9XFD5 1-473 partner): T1 sequence (H9XFD5 1-473 partner)
# [4] = target: T3, CmedOR1/ORco; details: agonist; with CmedORco; -80 mV; pH 7.5; 15 s stimulus; 10^-4 M (b31 also prints 0.1 μM)
SMILES,inward current [1],further results
CCC/C=C/C=O [E2-hexenal],"plant foliar odorants cis-3-hexenyl acetate, E2-hexenal, and β-caryophyllene",–
CCCC(=O)OCC [Ethyl butyrate],"floral volatile compounds methyl 2-methoxybenzoate, β-myrcene, and ethyl butyrate",–
CC(C)=CCC/C(C)=C/CO [Geraniol],–,inward current [2]: 128 ± 16 nA
C=CC(C)(O)CCC=C(C)C (stereo not shown) [Linalool],–,inward current [3]: 64 ± 5 nA
COC(=O)c1ccccc1OC [Methyl 2-methoxybenzoate],"floral volatile compounds methyl 2-methoxybenzoate, β-myrcene, and ethyl butyrate",–
OCCc1ccccc1 [Phenethyl alcohol],–,"inward current ([3]; printed as two isomers, phenethyl alcohol and 2-phenethyl alcohol): 130 ± 10 nA"
O=CCc1ccccc1 [Phenylacetaldehyde],–,inward current at 10^-4 M [4]: 3200 ± 86 nA
CC/C=C\CCOC(C)=O [cis-3-Hexenyl acetate],CmedOR32 showed nonspecific responses to plant foliar odorants cis-3-hexenyl acetate,–
C=C1CC/C=C(\C)CC[C@@H]2[C@@H]1CC2(C)C [β-Caryophyllene],"plant foliar odorants cis-3-hexenyl acetate, E2-hexenal, and β-caryophyllene",–
C=CC(=C)CCC=C(C)C [β-Myrcene],"floral volatile compounds methyl 2-methoxybenzoate, β-myrcene, and ethyl butyrate",–
